Laboratory results reported in BindingDB's records for patent US11938127 (Wayne State University, 2024).

Molecular target: T1, Cytochrome P450 1A2 (Homo sapiens, UniProt P05177)
T1 sequence (P05177 whole entry): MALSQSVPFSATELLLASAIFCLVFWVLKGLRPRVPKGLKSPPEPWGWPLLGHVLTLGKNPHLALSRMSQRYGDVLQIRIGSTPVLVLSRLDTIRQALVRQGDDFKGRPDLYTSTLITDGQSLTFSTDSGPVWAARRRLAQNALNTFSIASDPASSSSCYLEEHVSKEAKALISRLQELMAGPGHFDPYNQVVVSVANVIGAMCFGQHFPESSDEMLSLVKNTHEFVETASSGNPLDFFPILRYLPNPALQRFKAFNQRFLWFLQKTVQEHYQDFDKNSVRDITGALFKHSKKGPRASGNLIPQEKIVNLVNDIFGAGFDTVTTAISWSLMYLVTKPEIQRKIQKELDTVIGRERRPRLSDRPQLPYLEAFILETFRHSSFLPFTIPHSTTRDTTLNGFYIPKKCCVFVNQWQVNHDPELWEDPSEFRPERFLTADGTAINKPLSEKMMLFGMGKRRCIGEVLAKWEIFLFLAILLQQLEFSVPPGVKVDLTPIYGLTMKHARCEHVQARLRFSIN
Assay: CYP1A2 Inhibition Assay
Experimental: The quenched samples were incubated at 4° C. for 10 min and centrifuged at 4° C. for 10 min.

In the case of `CC(C)(C)CN1c2cccc(O)c2C(=O)CC1c1cccc(O)c1` (stereo unspecified) [US11938127, Compound KCI838], the IC50 is reported as 2920 nM.
